How the values were obtained:
[1] = target: T1, WT PDE5 GAFa domain biosensor (GFP^2-GAFa(I159-N316)-RLuc) (Homo sapiens, UniProt O76074); test: BRET-based GAFa domain conformational biosensor, cGMP dose-response (WT); format: biochemical
T1 construct: plasmids expressing the GAFa domain-based (GFP^2-GAFa(I159-N316)-RLuc); made in house; host or cells: HEK293T cells, transfected; cleared lysate used, not purified
Text: (§1) Having observed alterations in the structural dynamics in the GAFa domain of PDE5 upon L267A and F295A mutations using MD simulations, we then proceeded to determine the impact of these mutations experimentally. […] (Fig. 4A). Broadly, these changes include a close juxtaposition of the sheet β3 and helix α4 leading to a “closing” of the cGMP binding site, an “inward” movement of sheet β1 and β2 towards the cGMP binding site and an “outward” movement of the loop β2/β3 (Fig. 4A, left panel). Additionally, cGMP binding is associated with a close juxtapositioning of helices α2 and α5 at the N- and C-termini of the GAFa domain, likely associated with the transduction of the allosteric signal from the GAFa domain to the catalytic domain in PDE5 (Fig. 4A, right panel). We decided to take advantage of the latter to monitor cGMP-binding induced conformational change in the GAFa domain through an increase in the BRET efficiency of the GAFa domain biosensor that we have described previously[24] (Fig. 4B). BRET is a biophysical technique that involves resonance energy transfer between a bioluminescent donor and a fluorescent acceptor, the extent of which is dependent on the spectral overlap, distance, and relative orientation between the two reporters. […]

[2] = target: T2, L267A mutant PDE5 GAFa domain biosensor (Homo sapiens, UniProt O76074, L267A); test: BRET-based GAFa domain conformational biosensor, cGMP dose-response (L267A); format: biochemical; conditions: 1 µM cGMP
T2 construct: made in house; host or cells: HEK293T cells, transfected; cleared lysate used, not purified
Text: as §1

[3] = target: T3, F295A mutant PDE5 GAFa domain biosensor (Homo sapiens, UniProt O76074, F295A); test: BRET-based GAFa domain conformational biosensor, cGMP dose-response (F295A); format: biochemical; conditions: 1 µM cGMP
T3 construct: made in house; host or cells: HEK293T cells, transfected; cleared lysate used, not purified
Text: as §1

[4] = target: T4, WT full-length PDE5A2 biosensor (GFP^2-PDE5A2-RLuc) (Homo sapiens, UniProt O76074); test: BRET-based full-length PDE5A2 conformational biosensor, cGMP dose-response (WT); format: biochemical
T4 construct: the GAFa domain (I159-N316) or the full-length PDE5A2, were flanked by the green fluorescent protein 2 (GFP^2); made in house; host or cells: HEK293T cells, transfected; cleared lysate used, not purified
Text: (§2) Having elucidated the impact of the L267A and F295A mutations in the isolated GAFa domain, we aimed to investigate their effect on the cGMP-binding induced conformational change in the full-length PDE5 protein. For this, we incorporated the mutations in our previously described BRET-based, full-length PDE5A2 biosensor (Fig. 5A) that reports a conformational change upon cGMP binding to the GAFa, but not the catalytic, domain in the protein[25].
(§3) The design of the BRET^2-based GAFa and full-length PDE5 (A2 isoform) biosensors was described previously[24],[25]. […]
(§4) All assays were performed at 37 °C in 96-well, white, flat-bottom plates. […] Bioluminescence spectra of the WT or the mutant biosensors were acquired over wavelengths ranging between 385 and 665 nm utilizing a grating-based system with 15 nm integration step size, with each individual measurement acquired for 1 s using a Tecan SPARK® multimode microplate reader (Tecan, Switzerland). BRET was determined as a ratio of GFP^2 and RLuc emission, either in the absence or in the presence of the indicated concentrations of cGMP, following a 30-min incubation at 37 °C. Bioluminescence and BRET were measured following the addition of the RLuc substrates, either coelenterazine 400a or Prolume purple (NanoLight Technology, Prolume Ltd., USA). […]

[5] = target: L267A mutant full-length PDE5A2 biosensor (Homo sapiens, UniProt O76074, L267A); test: BRET-based full-length PDE5A2 conformational biosensor, cGMP dose-response (L267A); format: biochemical
Text: as §2, §3, §4

[6] = target: F295A mutant full-length PDE5A2 biosensor (Homo sapiens, UniProt O76074, F295A); test: BRET-based full-length PDE5A2 conformational biosensor, cGMP dose-response (F295A); format: biochemical
Text: as §2, §3, §4

[7] = tested on: isolated PDE5 GAFa domain; conditions: cited from earlier work
[8] = tested on: GAFb domain of PDE2A; design: method as in PMID 15210692; conditions: cGMP-binding GAFb domain of PDE2A; cited from earlier work
[9] = 30 min incubation, mean ± S.D., three experiments, read-out: EC50 of cGMP-induced conformational change (decrease in BRET)

Question: For `Nc1nc2c(ncn2[C@@H]2O[C@@H]3COP(=O)(O)O[C@H]3[C@H]2O)c(=O)[nH]1` [cGMP], which “change in BRET in the presence of cGMP” value ([1]; 1 µM cGMP) is on record?
Answer: increase in BRET

Question: What about the EC50 ([1]; read-out: EC50 of cGMP-induced conformational change (increase in BRET), HEK293T cell lysate, 30 min, 37 °C, mean ± S.D., four experiments) of the same compound?
Answer: 19 ± 13 nM

Question: And the “change in BRET in the presence of cGMP” value [2]?
Answer: neither the L267A nor the F295A mutant biosensors showed a discernible change in BRET

Question: What about the “change in BRET in the presence of cGMP” value [3] of the same compound?
Answer: neither the L267A nor the F295A mutant biosensors showed a discernible change in BRET

Question: What about the EC50 [4, 9] of the same compound?
Answer: 73 ± 20 nM

Question: What about the “maximum BRET change” value ([4]; cGMP dose-response) of the same compound?
Answer: -26.60 ± 3.42%

Question: And the EC50 [5, 9]?
Answer: 181 ± 30 nM

Question: What about the “maximum BRET change” value ([5]; cGMP dose-response) of the same compound?
Answer: −17.43 ± 1.31%

Question: And the EC50 [6, 9]?
Answer: 3400 ± 2100 nM

Question: What about the “maximum BRET change” value ([6]; cGMP dose-response) of the same compound?
Answer: −12.60 ± 2.37%

Question: And the “affinity for cGMP” value ([7]; PDE5 GAFa domain)?
Answer: nanomolar affinity

Question: And the “higher affinity for cGMP compared to cAMP” value ([7]; isolated PDE5 GAFa domain)?
Answer: thousand-fold

Question: What about the “fold higher affinity for cGMP” value [8] of the same compound?
Answer: about 20 fold

From publication PMC11977230, “Coevolving residues distant from the ligand binding site are involved in GAF domain function” (Communications Chemistry, 2025)
